Legend:
PKCβ1 = target: T1, PKCβ1 (Homo sapiens, UniProt P05771); experiment: mobility shift assay; format: biochemical
T1 construct: purchased Carna Biosciences

RET(G691S) = target: T2, RET(G691S) (Homo sapiens, UniProt P07949, G691S); experiment: mobility shift assay; format: biochemical
T2 construct: purchased Carna Biosciences
T2 sequence (P07949 29-1114 G691S): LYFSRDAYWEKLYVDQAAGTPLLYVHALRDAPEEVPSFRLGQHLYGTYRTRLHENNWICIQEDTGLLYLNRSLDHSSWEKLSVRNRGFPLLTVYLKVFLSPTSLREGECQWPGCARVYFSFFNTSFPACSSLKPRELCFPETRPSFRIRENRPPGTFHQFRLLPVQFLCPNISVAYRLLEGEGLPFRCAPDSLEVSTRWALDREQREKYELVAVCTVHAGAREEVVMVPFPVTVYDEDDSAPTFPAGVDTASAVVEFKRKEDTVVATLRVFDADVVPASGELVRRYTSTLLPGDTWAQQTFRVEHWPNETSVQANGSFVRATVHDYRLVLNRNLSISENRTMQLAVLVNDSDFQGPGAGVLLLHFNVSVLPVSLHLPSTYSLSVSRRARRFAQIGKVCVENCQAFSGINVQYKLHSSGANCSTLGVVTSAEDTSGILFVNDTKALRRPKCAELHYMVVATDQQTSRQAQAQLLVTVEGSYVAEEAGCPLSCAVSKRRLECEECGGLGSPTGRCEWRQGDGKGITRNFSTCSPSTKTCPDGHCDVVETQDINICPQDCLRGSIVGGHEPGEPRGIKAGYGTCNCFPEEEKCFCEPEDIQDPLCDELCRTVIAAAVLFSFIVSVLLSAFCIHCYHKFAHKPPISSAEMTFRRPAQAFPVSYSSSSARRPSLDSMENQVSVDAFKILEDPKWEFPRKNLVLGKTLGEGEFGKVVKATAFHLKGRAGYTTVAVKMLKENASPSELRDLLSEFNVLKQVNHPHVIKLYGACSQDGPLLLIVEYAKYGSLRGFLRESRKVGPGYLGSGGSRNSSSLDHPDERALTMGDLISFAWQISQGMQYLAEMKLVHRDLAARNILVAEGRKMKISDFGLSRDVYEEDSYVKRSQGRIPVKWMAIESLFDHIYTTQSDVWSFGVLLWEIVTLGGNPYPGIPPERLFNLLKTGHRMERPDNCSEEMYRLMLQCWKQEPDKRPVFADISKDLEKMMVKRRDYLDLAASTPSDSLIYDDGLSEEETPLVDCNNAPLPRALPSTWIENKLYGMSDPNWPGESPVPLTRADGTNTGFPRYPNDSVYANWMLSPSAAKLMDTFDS

T1 sequence (P05771 whole entry): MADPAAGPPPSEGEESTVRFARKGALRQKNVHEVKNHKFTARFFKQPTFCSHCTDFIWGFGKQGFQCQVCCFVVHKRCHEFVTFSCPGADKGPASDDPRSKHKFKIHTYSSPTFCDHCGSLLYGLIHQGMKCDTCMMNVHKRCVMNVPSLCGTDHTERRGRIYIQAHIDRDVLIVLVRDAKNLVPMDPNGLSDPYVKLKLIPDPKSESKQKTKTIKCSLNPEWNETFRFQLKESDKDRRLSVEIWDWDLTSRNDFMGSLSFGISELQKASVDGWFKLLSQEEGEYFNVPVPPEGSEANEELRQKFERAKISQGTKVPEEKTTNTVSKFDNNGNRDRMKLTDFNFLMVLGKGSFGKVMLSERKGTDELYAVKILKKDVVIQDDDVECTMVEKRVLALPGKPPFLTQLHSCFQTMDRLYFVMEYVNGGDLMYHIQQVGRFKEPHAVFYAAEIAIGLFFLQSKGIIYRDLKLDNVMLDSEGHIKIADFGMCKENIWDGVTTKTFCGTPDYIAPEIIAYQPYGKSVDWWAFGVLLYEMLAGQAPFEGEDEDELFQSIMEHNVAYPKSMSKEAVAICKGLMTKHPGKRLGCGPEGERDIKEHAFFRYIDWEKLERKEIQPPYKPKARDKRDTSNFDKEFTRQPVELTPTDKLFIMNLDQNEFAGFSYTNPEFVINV

C[C@@H]1CC[C@H]2C(C)(C)CCC[C@]2(C)c2c1oc1c(C=O)c(O)c(O)cc21 [LG-1, liphagal]
inhibition at 10 µM (PKCβ1): -18% | inhibition at 10 µM (RET(G691S)): 14.8%

From patent US11691980B2, “Liphagal analog and multi-targeted kinase inhibitor containing liphagal or analog thereof” (TOHOKU UNIVERSITY, priority 2017, dated 2023)
